Experimental data from patent US8987262B2, “Use of a beta blocker for the manufacture of a medicament for the treatment of hemangiomas” (Universite de Bordeaux, priority 2007, dated 2015).
Like-named read-outs stand apart in the source and are kept apart here.

Experiments:
[1] = tested on: cleaved caspase-3 and 8; experiment: Immuno-histochemical analysis of IH biopsy with anti-cleaved caspase-3 and 8 antibodies; design: species or system human; conditions: Example 2, arm biopsy at 3 months of age
Method: Prednisolone treatment was progressively tapered down while the IH continued to improve. At 3 months of age a biopsy sample was obtained on the arm, showing a typical IH.
Reintroduction of propranolol treatment at 2 mg/kg/day was successful after only 24 hours.

[2] = tested on: subglottic hemangioma; conditions: cited from earlier work
[3] = tested on: infantile capillary hemangiomas (IH); experiment: Treatment of infants with infantile hemangioma (case reports, Examples 1-3)
[4] = tested on: infantile hemangiomas; conditions: cited from earlier work
[5] = tested on: HIF-1alpha and VEGF; conditions: pressure-overloaded rat heart; cited from earlier work
[6] = tested on: head and neck IH; conditions: oral suspension up to 4 mg/kg/day, 24 weeks; cited from earlier work
[7] = tested on: IH; conditions: in vivo; cited from earlier work
[8] = Case 4, 3 mg/kg/day, stenosis at referral 90%
[9] = Case 1, 8 mg/kg/day, stenosis at referral 90%
[10] = Case 2, 8 mg/kg/day, stenosis at referral 70%
[11] = Case 3, 8 mg/kg/day, stenosis at referral 90%

CC(C)NCC(O)COc1cccc2ccccc12 (racemic) [propranolol]
cleaved caspase-3 and 8 immunostaining (proapoptotic role) [1]: did not demonstrate positive immunostaining | Beta-blocker efficiency [2, 8]: success | Laryngeal stenosis during beta-blocker treatment (%) [2, 8]: 5% | change of the hemangioma after onset of treatment ([3]; Example 1, baby, nasal pyramid IH, 3 mg/kg/day, the day after onset): changed in color from intense red to purple, and softened | aspect of the IH ([3]; Example 1, still under propranolol): completely flat | parotidal and axillary subcutaneous hemangiomatous components ([3]; Example 2, 2 mg/kg/d): not palpable | time to softening of the lesions after onset ([3]; Example 2, 2 mg/kg/day): 12 h | time to success after reintroduction of treatment ([3]; Example 2, 2 mg/kg/day): 24 h | change in size of hemangioma ([3]; Example 2, 2 mg/kg/day, seven days after onset): dramatic reduction in size of the subcutaneous component of the hemangioma | effect of treatment interruption ([3]; Example 2, 3-day interruption, superior eyelid and parotidal areas): mild increase in size of the hemangioma | outcome after treatment stopped ([3]; Example 2, stopped): without any re-growth of the IH | hemodynamic modifications ([3]; Example 3, 7 days after onset, 2 mg/kg/day): without any hemodynamic modifications | IH thickness (ultrasonography) ([3]; Example 3, 7 days after onset, versus 12 mm before): 6 mm | IH diameter (ultrasonography) ([3]; Example 3, 7 days after onset, versus 32 mm before): 21 mm | time to flattening of the lesion ([3]; Example 3, periocular IH, 2 mg/kg/day): 12 h | outcome after treatment stopped ([3]; Example 3, stopped after one month): novel increase in size of the IH | outcome after treatment stopped ([3]; Example 3, stopped at 8 months): without any rebound of the hemangioma | aspect of the IH ([3]; Example 3, treatment resumed): flat and had faded in color | treatment failure ([3]; all treated children (Examples 1-3 and seven other)): No treatment failure

CCCC(=O)Nc1ccc(OCC(O)CNC(C)C)c(C(C)=O)c1 (centres unmarked) [Acebutolol]
overall result of study ([2]; 8 mg/kg/day): able to treat hemangiomas | Beta-blocker efficiency [2, 9]: Failure | Laryngeal stenosis during beta-blocker treatment (%) [2, 9]: 90% | Beta-blocker efficiency [2, 10]: success | Laryngeal stenosis during beta-blocker treatment (%) [2, 10]: 10% | Beta-blocker efficiency [2, 11]: success | Laryngeal stenosis during beta-blocker treatment (%) [2, 11]: 5%

CC(C)(C)NC[C@H](O)COc1nsnc1N1CCOCC1 [Timolol, timolol]
Mean VAS ± Standard deviation ([4]; Age at treatment inititation (mos) <6): 45 ± 27 | Mean VAS ± Standard deviation ([4]; Age at treatment inititation (mos) >6): 47 ± 30 | Mean VAS ± Standard deviation ([4]; Depth of hemangioma: Deep): 32 ± 28 | Mean VAS ± Standard deviation ([4]; Depth of hemangioma: Superficial): 53 ± 29 | Mean VAS ± Standard deviation ([4]; Location: Facial): 45 ± 29 | Mean VAS ± Standard deviation ([4]; Location: Nonfacial): 43 ± 32 | Mean VAS ± Standard deviation ([4]; Timolol concentration (%) 0.1): 24 ± 29 | Mean VAS ± Standard deviation ([4]; Timolol concentration (%) 0.5): 48 ± 28 | Mean VAS ± Standard deviation ([4]; Treatment duration (mos) <3): 38 ± 28 | Mean VAS ± Standard deviation ([4]; Treatment duration (mos) >3): 52 ± 30 | overall result of study ([4]; timolol maleate 0.1% or 0.5% gel-forming solution): able to treat hemangiomas

C[C@H]1C[C@H]2[C@@H]3CCC4=CC(=O)C=C[C@]4(C)[C@@]3(F)[C@@H](O)C[C@]2(C)[C@@]1(O)C(=O)CO [betamethasone]
cardiac sonography finding ([3]; Example 1, under systemic steroid): obstructive hypertrophic myocardiopathy

COc1ccccc1OCCNCC(O)COc1cccc2[nH]c3ccccc3c12 (centres unmarked) [cardivedilol]
effect on HIF-1alpha and VEGF protein and mRNA [5]: reverses both protein and mRNA of HIF-1alpha and VEGF to the baseline values

CC(C)(C)NCC(O)COc1cccc2c1CC(O)C(O)C2 (centres unmarked) [nadolol]
overall result of study [6]: able to treat efficiently hemangiomas

C[C@]12C=CC(=O)C=C1CC[C@@H]1[C@@H]2[C@@H](O)C[C@@]2(C)[C@H]1CC[C@]2(O)C(=O)CO [prednisolone]
CS efficiency ([2]; Case 1, before beta-blocker treatment, (2 mg/kg/day)): CS-persistant | CS efficiency ([2]; Case 2, before beta-blocker treatment, (1 mg/kg/day)): CS-dependent | CS efficiency ([2]; Case 3, before beta-blocker treatment, (1 mg/kg/day)): CS-dependent | CS efficiency ([2]; Case 4, before beta-blocker treatment, (1.5 mg/kg/day)): CS-dependent | effect on hemangioma ([3]; Example 1, one-month treatment at 3 mg/kg/day): stabilized, but nasal necrosis progressed | effect on IH ([3]; Example 2, 3 mg/kg/day 2 weeks then 5 mg/kg/day 2 weeks): continued to enlarge

CC[C@]1(O)C[C@H]2CN(CCc3c([nH]c4ccccc34)[C@@](C(=O)OC)(c3cc4c(cc3OC)N(C=O)[C@H]3[C@@](O)(C(=O)OC)[C@H](OC(C)=O)[C@]5(CC)C=CCN6CC[C@]43[C@@H]65)C2)C1 [vincristine]
well-known downsides [7]: peripheral neuropathy, constipation, and hematologic toxicity
